Article PMC7466001 (Molecules, 2020)
Several values for one entry are separate records, joined by “and”; a condition that tells them apart may be missing. Equal entries are not always repeated. Where two headings read alike, the source gives them in different places.

How the values were obtained:
[1] = biological target: T1, rat neurokinin 1 receptor (Rattus norvegicus, UniProt P14600); assay: Competitive radioligand binding assay using rat brain homogenates, [3H]-[Sar9,Met(O2)11]-Substance P; conditions: for Ratio to APT: IC50 ratio to aprepitant, rat NK1R
T1 construct: from tissue; host or cells: rat brain (membrane preparation / homogenate)
T1 sequence (P14600 whole entry): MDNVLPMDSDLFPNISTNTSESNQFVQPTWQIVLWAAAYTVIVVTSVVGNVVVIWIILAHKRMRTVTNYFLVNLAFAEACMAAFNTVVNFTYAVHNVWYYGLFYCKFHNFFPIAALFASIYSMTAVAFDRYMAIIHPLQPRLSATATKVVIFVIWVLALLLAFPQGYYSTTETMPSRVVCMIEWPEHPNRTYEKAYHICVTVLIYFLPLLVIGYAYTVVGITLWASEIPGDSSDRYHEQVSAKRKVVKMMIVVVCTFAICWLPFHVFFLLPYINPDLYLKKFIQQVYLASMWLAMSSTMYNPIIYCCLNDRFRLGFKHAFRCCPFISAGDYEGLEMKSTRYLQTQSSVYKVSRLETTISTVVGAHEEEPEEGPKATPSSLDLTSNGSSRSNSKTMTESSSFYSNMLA
Text: An important consideration in the search of conjugate vectors for radionuclides is whether the functionalization of a high affinity ligand would not reduce the binding strength for a desired receptor. For the preliminary addressing of this issue in the case of our conjugates, we measured the affinity of compounds 5A–E (uncomplexed precursors) for the rat neurokinin-1 receptor. The human (hNK1R) and the rat (rNK1R) neurokinin 1 receptors differ in their sequences and pharmacology.
In brief, the membrane preparations obtained from rat brains were incubated at 25 °C for 60 min in the presence of a selective radioligand [^3H]-[Sar^9,Met(O2)^11]-Substance P obtained from PerkinElmer, (Waltham, MA, USA) and the increasing concentrations of the tested compounds (each concentration in duplicate). Non-specific binding was measured in the presence of 10 μM cold Substance P. The assay buffer was composed of 50 mM Tris-HCl (pH 7.4), 5 mM MnCl2, bovine serum albumin (BSA) (0.1 mg/mL), bacitracin (100 μg/mL), bestatin (30 μM), phenylmethylsulfonyl fluoride (30 μg/mL), and captopril (10 μM). The reaction total volume was 1 mL. With the incubation having been terminated, a rapid filtration through GF/B Whatman glass fiber strips was done with a M-24 Cell Harvester (Brandel, Gaithersburg, MD, USA). The filters were pre-soaked overnight with 0.5% polyethyleneimine so that the extent of non-specific binding could be minimized. After the filtration, the strips were dried, the filter discs were placed separately in 24-well plates, and a Betaplate Scint scintillation solution (PerkinElmer, Waltham, MA, USA) was added to each well. Radioactivity was measured with a MicroBeta LS scintillation counter, Trilux (PerkinElmer, Waltham, MA, USA). The data came from three independent experiments done in duplicate. The results are presented as IC50 with SEM.

[2] = test system: rNK1R; parameters: method as in PMID 19426690; conditions: cells expressing rNK1R; cited from earlier work
[3] = test system: hNK1R; parameters: method as in PMID 19426690; conditions: cells expressing hNK1R; cited from earlier work
[4] = biological target: human neurokinin 1 receptor; parameters: method as in PMID 9804700; conditions: human receptor binding; cited from earlier work
[5] = parameters: method as in PMID 15488686; conditions: aprepitant; cited from earlier work
[6] = Lipophilicity study, distribution in n-octanol/PBS (pH 7.40); type: physicochemical; conditions: n-octanol/PBS buffer pH 7.4
Text: In the course of the lipophilicity study, each isolated DOTA radioconjugate (determined as fully stable in HS) was examined for distribution in the system of n-octanol and a phosphate-buffered saline (PBS) buffer (pH = 7.4) to estimate the lipophilicity of the radiocomplex. The lipophilicity of each radioconjugate (logD), defined as the logarithm of the distribution coefficient (D) is based on the ratio of the radioactivity of the organic phase to the radioactivity of the aqueous phase. The stability of the studied radioconjugate was verified simultaneously during the experiment through the HPLC analysis of the aqueous phase. LogD values of [^68Ga]Ga-5A–[^68Ga]Ga-5E and [^177Lu]Lu-5A–[^177Lu]Lu-5E are listed below in Table 3.
The lipophilicity values of the radioconjugates (logD), expressed as the logarithm of its D in the n-octanol/PBS (pH 7.40) system, mimicking the physiological conditions (Product Properties Test Guidelines of the Office of Prevention, Pesticides and Toxic Substances 830.7550, 1996), were determined right after the SPE method purification and ethanol evaporation processes. A solution of isolated selected radioconjugate in 500 µL of a 0.1 M PBS buffer at pH 7.40 and 500 µL of n-octanol was vigorously stirred and centrifuged (13,500 rpm for 5 min) to separate the immiscible phases. The radioactivities of the aqueous and organic layers were determined using a well-type NaI(Tl) detector. The distribution coefficient was calculated as the ratio of the radioactivity of the radioconjugate in the organic phase to that in the aqueous phase. Each measurement was performed in triplicate and averaged. Simultaneously, the aqueous phases were analyzed by HPLC to check whether the studied radioconjugate remained intact during the experiment.

[7] = type: physicochemical
Experimental: All APT conjugates with DOTA, Bn-DOTA, and Bn-DOTAGA were radiolabeled with ^68Ga and ^177Lu, while APT conjugates with DTPA were only radiolabeled with ^68Ga. Synthesized radioconjugates were purified using the solid phase extraction (SPE) method before HPLC identification (Figure 2 and Figure 3) and further analyses.
Moreover, in the radiochromatogram of [^177Lu]Lu-DOTA-Bn-Et-APT ([^177Lu]Lu-6A) one can see a small additional signal (about 19.3 min) that is recognized as an early by-product of an interaction with solvent (EtOH) from the purification process. To verify the identity of all synthesized [^68Ga]Ga-radioconjugates in a non-carrier added scale, the non-radioactive stable gallium reference compounds (Ga-5A–Ga-9A and Ga-5A–Ga-5E) were synthesized and characterized by mass spectrometry. […]
The ^68Ga radiolabeling of the DOTA, Bn-DOTA, and Bn-DOTAGA conjugates of APT was performed according to the following procedure: 145 µL of a concentrated solution of [^68Ga]GaCl3 in 0.1 M HCl from the ^68Ge/^68Ga generator (4.9 ÷ 7.2 MBq) was added into the solution of 25 nmol of the selected conjugate in 200 µL of a 0.2 M acetate buffer (pH = 4.5) and heated for 5–10 min at 95 °C. […] The effectiveness of the purification was monitored by HPLC. […]

[8] = uncomplexed precursors, rat brain homogenates, three independent experiments in duplicate, read-out: IC50 ± SEM

Ratio to APT [1]	IC50 [1, 8]	Molecule	IC50 ([1]; IC50, rat brain homogenates) [nM]	IC50 ([1]; IC50 ± SEM, uncomplexed precursors, rat brain homogenates, three independent experiments in duplicate) [nM]	pKB [2]	pKB [3]	IC50 [4] [nM]	logD [5]	logD ([6]; 68Ga-radiolabeled conjugate)	logD ([6]; 177Lu-radiolabeled conjugate)	stability of the radioconjugate after radiosynthesis [7]
19.7	~2500 nM and 2500 nM	APT-Ac-Et-DOTA [5E]							−0.231 ± 0.015	0.500 ± 0.017	
19.1	~2500 nM and 2500 nM	APT-Ac-HN-NH-DOTA [5D]							−1.012 ± 0.017	−0.401 ± 0.015	
14.3	1800 ± 700 nM	APT-Bu-DOTA [5C]							0.290 ± 0.018	0.777 ± 0.021	
5.3	690 ± 70 nM	APT-Pr-DOTA [5B]							0.058 ± 0.016	0.654 ± 0.022	
		[^68Ga]Ga-DTPA-(Et-APT)2 [[^68Ga]Ga-9A]									immediately unstable

Molecule	Ratio to APT [1]	IC50 [1, 8]	IC50 ([1]; IC50, rat brain homogenates) [nM]	IC50 ([1]; IC50 ± SEM, uncomplexed precursors, rat brain homogenates, three independent experiments in duplicate) [nM]	pKB [2]	pKB [3]	IC50 [4] [nM]	logD [5]	logD ([6]; 68Ga-radiolabeled conjugate)	logD ([6]; 177Lu-radiolabeled conjugate)	stability of the radioconjugate after radiosynthesis [7]
C[C@@H](O[C@H]1OCCN(Cc2n[nH]c(=O)[nH]2)[C@H]1c1ccc(F)cc1)c1cc(C(F)(F)F)cc(C(F)(F)F)c1 [Aprepitant, aprepitant]	1.0		128	130 ± 60	7.3	8.7	0.09	4.8			
APT-Et-DOTA [5A]	48.2	6200 ± 2600 nM							0.141 ± 0.019	0.708 ± 0.021	
